Like-named read-outs stand apart in the source and are kept apart here. Numbered stars: 1 amine (or outer) side, 2 acyl side, 3 side chain; on linkers, the order of the positions; unused ones are H or OH. Square brackets hold non-standard residues; d marks the D form. Side chains are listed from the residue outwards. Peptide text beside a SMILES is read from it. * marks the point of attachment. γGlu = O=C(O)[C@H](CCC(=O)[*:2])N[*:1]; Palmitoyl = CCCCCCCCCCCCCCCC(=O)*; αMeF = C[C@](N)(Cc1ccccc1)C(=O)O; αMeK = C[C@](N)(CCCCN)C(=O)O; αMeS = C[C@](N)(CO)C(=O)O; Aib = CC(C)(N)C(=O)O
How the values were obtained:
Type in all cases: cell-based
[1] = target: T1, human GLP-1 receptor (GLP-1R) (Homo sapiens, UniProt P43220); assay: cAMP assay, human GLP-1R cells
T1 construct: expressed in transfected cells
T1 sequence (P43220 24-463): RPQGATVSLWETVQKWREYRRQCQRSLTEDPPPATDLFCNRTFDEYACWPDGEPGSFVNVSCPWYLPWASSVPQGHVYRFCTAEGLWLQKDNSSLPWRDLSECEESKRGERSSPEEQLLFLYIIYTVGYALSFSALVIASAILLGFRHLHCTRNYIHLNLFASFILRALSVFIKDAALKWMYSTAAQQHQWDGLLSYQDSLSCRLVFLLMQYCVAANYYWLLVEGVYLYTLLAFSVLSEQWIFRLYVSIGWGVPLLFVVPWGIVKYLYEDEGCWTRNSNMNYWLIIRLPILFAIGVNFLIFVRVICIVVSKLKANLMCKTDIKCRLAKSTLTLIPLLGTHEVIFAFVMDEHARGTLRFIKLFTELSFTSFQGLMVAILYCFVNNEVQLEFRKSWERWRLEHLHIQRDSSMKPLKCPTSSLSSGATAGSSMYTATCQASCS
Experimental: Sample dilutions are made in duplicate.
A frozen cryo-vial of cells expressing the receptor of interest is thawed rapidly in a water-bath, transferred to pre-warmed assay buffer and spun at 240×g for 5 minutes. Cells are re-suspended in assay buffer at a batch-dependent optimized concentration (e.g. hGCGR cells at 2×10^5 cells/ml, hGLP-1R and hGIPR cells at 1×10^5 cells/ml).
To this, 5 μL cell suspension is added and the plates incubated at room temperature for 30 minutes.
cAMP levels are measured using a commercially available cAMP dynamic 2 HTRF kit (Cisbio, Cat #62AM4PEJ), following the two step protocol as per manufacturer's recommendations. In brief; anti-cAMP cryptate (donor fluorophore) and cAMP-d2 (acceptor fluorophore) are made up separately by diluting each 1/20 in conjugate & lysis buffer provided in the kit. 5 μL anti-cAMP cryptate is added to wells of the assay plate, and 5 μL cAMP-d2 is added to wells except non-specific binding (NSB) wells, to which conjugate and lysis buffer are added. […] EC50 values of the synthetic peptides determined in cAMP assays are then determined.
Data is transformed to % Delta F as described in the manufacturer's guidelines and analyzed by 4-parameter logistic fit to determine EC50 values. […] To compare the balance of activities at the GLP-1R and GCGR between different peptides and across different conditions, these can be correlated, where the EC50's are related to those of comparator peptides.

[2] = target: T2, human glucagon receptor (GCGR) (Homo sapiens, UniProt P47871); assay: cAMP assay, human GCGR cells; details: cAMP assay
T2 construct: expressed in transfected cells
T2 sequence (P47871 26-477): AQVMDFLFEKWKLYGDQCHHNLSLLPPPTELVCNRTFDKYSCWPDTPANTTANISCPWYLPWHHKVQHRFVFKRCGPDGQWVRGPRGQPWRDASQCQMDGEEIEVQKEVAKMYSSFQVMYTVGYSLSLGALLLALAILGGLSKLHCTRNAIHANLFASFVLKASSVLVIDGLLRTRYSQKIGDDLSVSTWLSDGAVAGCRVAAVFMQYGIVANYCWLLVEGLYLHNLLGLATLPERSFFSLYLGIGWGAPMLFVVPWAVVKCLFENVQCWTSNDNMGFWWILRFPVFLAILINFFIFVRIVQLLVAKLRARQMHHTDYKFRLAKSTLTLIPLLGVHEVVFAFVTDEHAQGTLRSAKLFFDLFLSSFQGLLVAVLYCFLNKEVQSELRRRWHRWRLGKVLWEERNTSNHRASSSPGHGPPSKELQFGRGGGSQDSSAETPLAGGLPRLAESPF
Outline: (§1)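 Peptide-stimulated cAMP measured by two-step HTRF after a 30 min room-temperature incubation with receptor-expressing cells (hGLP-1R, hGIPR at 1×10^5 cells/ml; hGCGR at 2×10^5 cells/ml). Duplicate dilutions; EC50 from 4-parameter logistic fit of % Delta F.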

[3] = target: T3, human glucose-dependent insulinotropic peptide receptor (GIPR) (Homo sapiens, UniProt P48546); assay: cAMP assay, human GIPR cells; details: cAMP assay
T3 construct: expressed in transfected cells
T3 sequence (P48546 22-466): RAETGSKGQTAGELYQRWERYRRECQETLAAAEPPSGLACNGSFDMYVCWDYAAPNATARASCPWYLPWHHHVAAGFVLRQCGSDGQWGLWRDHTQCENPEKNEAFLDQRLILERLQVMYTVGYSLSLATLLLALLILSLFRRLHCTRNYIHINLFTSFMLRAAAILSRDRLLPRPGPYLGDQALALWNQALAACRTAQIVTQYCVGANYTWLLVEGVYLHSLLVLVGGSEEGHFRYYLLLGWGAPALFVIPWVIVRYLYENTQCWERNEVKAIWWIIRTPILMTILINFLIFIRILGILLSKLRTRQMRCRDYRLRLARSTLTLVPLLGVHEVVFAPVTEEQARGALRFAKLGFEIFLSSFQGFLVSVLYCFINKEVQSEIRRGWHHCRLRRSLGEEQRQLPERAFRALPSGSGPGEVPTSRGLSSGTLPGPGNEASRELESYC
Outline: as §1

[4] = cAMP assay, first determination (n1), read-out: Primary assay EC50 GLP-1R n1
[5] = cAMP assay, second determination (n2), read-out: Primary assay EC50 GLP-1R n2
[6] = mean of n1 and n2, read-out: Mean pM GLP-1R
[7] = first determination (n1), read-out: Primary assay EC50 Gluc-R (n1)
[8] = second determination (n2), read-out: Primary assay EC50 Gluc-R (n2)
[9] = first determination (n1), read-out: Primary assay EC50 GIP-R (n1)
[10] = second determination (n2), read-out: Primary assay EC50 GIP-R (n2)

SMILES	EC50 [1, 4] [pM]	EC50 [1, 5] [pM]	EC50 [1, 6] [pM]	EC50 [2, 7] [nM]	EC50 [2, 8] [nM]	EC50 [3, 9] [nM]	EC50 [3, 10] [nM]
CC[C@H](C)[C@H](NC(=O)[C@](C)(Cc1ccccc1)NC(=O)[C@H](CCC(=O)O)NC(=O)[C@](C)(CCCCN)NC(=O)[C@H](C)NC(=O)[C@H](C)NC(=O)[C@H](CCC(=O)O)NC(=O)CNC(=O)[C@H](CCC(=O)O)NC(=O)[C@H](CC(C)C)NC(=O)[C@](C)(Cc1ccccc1)NC(=O)[C@H](CO)NC(=O)[C@H](CO)NC(=O)[C@@H](NC(=O)[C@H](CC(=O)O)NC(=O)[C@](C)(CO)NC(=O)[C@@H](NC(=O)[C@](C)(Cc1ccccc1)NC(=O)[C@H](CO)NC(=O)CNC(=O)[C@H](CCC(=O)O)NC(=O)C(C)(C)NC(=O)[C@@H](N)Cc1c[nH]cn1)[C@@H](C)O)C(C)C)C(=O)N[C@@H](C)C(=O)N[C@@](C)(Cc1ccccc1)C(=O)N[C@H](C(=O)N[C@H](C(=O)N[C@@](C)(CCCCN)C(=O)NCC(=O)NCC(N)=O)C(C)C)C(C)C [compound 16]	11000	9400	10100	≥ 100	≥ 100	≥ 100	≥ 100
CCCCCCCCCCCCCCCC(=O)N[C@@H](CCC(=O)NCCCC[C@H](NC(=O)[C@H](CO)NC(=O)CNC(=O)[C@H](CCC(=O)O)NC(=O)C(C)(C)NC(=O)[C@@H](N)Cc1c[nH]cn1)C(=O)N[C@H](C(=O)N[C@@H](CO)C(=O)N[C@@H](CC(=O)O)C(=O)N[C@H](C(=O)N[C@@](C)(CO)C(=O)N[C@@H](CO)C(=O)N[C@@](C)(Cc1ccccc1)C(=O)N[C@@H](CC(C)C)C(=O)N[C@@H](CCC(=O)O)C(=O)NCC(=O)N[C@@H](CCC(=O)O)C(=O)N[C@@H](C)C(=O)N[C@@H](C)C(=O)N[C@@](C)(CCCCN)C(=O)N[C@@H](CCC(=O)O)C(=O)N[C@@](C)(Cc1ccccc1)C(=O)N[C@H](C(=O)N[C@@H](C)C(=O)N[C@@](C)(Cc1ccccc1)C(=O)N[C@H](C(=O)N[C@H](C(=O)N[C@@](C)(CCCCN)C(=O)NCC(=O)NCC(N)=O)C(C)C)C(C)C)[C@@H](C)CC)C(C)C)[C@@H](C)O)C(=O)O [compound 94]	140	320	228	≥ 28	≥ 28	≥ 28	≥ 28
CCCCCCCCCCCCCCCC(=O)N[C@@H](CCC(=O)NCCCC[C@H](NC(=O)[C@@H](NC(=O)[C@](C)(Cc1ccccc1)NC(=O)[C@H](CO)NC(=O)CNC(=O)[C@H](CCC(=O)O)NC(=O)C(C)(C)NC(=O)[C@@H](N)Cc1c[nH]cn1)[C@@H](C)O)C(=O)N[C@@H](CC(=O)O)C(=O)N[C@H](C(=O)N[C@@](C)(CO)C(=O)N[C@@H](CO)C(=O)N[C@@](C)(Cc1ccccc1)C(=O)N[C@@H](CC(C)C)C(=O)N[C@@H](CCC(=O)O)C(=O)NCC(=O)N[C@@H](CCC(=O)O)C(=O)N[C@@H](C)C(=O)N[C@@H](C)C(=O)N[C@@](C)(CCCCN)C(=O)N[C@@H](CCC(=O)O)C(=O)N[C@@](C)(Cc1ccccc1)C(=O)N[C@H](C(=O)N[C@@H](C)C(=O)N[C@@](C)(Cc1ccccc1)C(=O)N[C@H](C(=O)N[C@H](C(=O)N[C@@](C)(CCCCN)C(=O)NCC(=O)NCC(N)=O)C(C)C)C(C)C)[C@@H](C)CC)C(C)C)C(=O)O [compound 92] (H-H[Aib]EGS[αMeF]TK([γGlu-Palmitoyl])DV[αMeS]S[αMeF]LEGEAA[αMeK]E[αMeF]IA[αMeF]VV[αMeK]GG-NH2; N-terminus assumed)	450	390	423	≥ 28	≥ 28	≥ 28	≥ 28

Results, then the compound that gave them:

EC50 [1, 4] [pM]	EC50 [1, 5] [pM]	EC50 [1, 6] [pM]	EC50 [2, 7] [nM]	EC50 [2, 8] [nM]	EC50 [3, 9] [nM]	EC50 [3, 10] [nM]	SMILES
14	6	10.2	≥ 27	≥ 27	≥ 27	≥ 27	CCCCCCCCCCCC(=O)N[C@@H](CCC(=O)N[C@@H](CCC(=O)NCCCC[C@H](NC(=O)[C@@H](NC(=O)[C@@H](NC(=O)[C@](C)(Cc1ccccc1)NC(=O)[C@H](C)NC(=O)[C@@H](NC(=O)[C@](C)(Cc1ccccc1)NC(=O)[C@H](CCC(=O)O)NC(=O)[C@](C)(CCCCN)NC(=O)[C@H](C)NC(=O)[C@H](C)NC(=O)[C@H](CCC(=O)O)NC(=O)CNC(=O)[C@H](CCC(=O)O)NC(=O)[C@H](CC(C)C)NC(=O)[C@](C)(Cc1ccccc1)NC(=O)[C@H](CO)NC(=O)[C@](C)(CO)NC(=O)[C@@H](NC(=O)[C@H](CC(=O)O)NC(=O)[C@H](CO)NC(=O)[C@@H](NC(=O)[C@](C)(Cc1ccccc1)NC(=O)[C@H](CO)NC(=O)CNC(=O)[C@H](CCC(=O)O)NC(=O)C(C)(C)NC(=O)[C@@H](N)Cc1c[nH]cn1)[C@@H](C)O)C(C)C)[C@@H](C)CC)C(C)C)C(C)C)C(=O)NCC(=O)NCC(N)=O)C(=O)O)C(=O)O [compound 165]
1800	570	1170	≥ 85	≥ 26	≥ 85	≥ 26	CC[C@H](C)[C@H](NC(=O)[C@](C)(Cc1ccccc1)NC(=O)[C@H](CCC(=O)O)NC(=O)[C@H](CCCCNC(=O)COCCOCCNC(=O)COCCOCCNC(=O)CC[C@H](NC(=O)CCCCCCCCCCCCCCCCC(=O)O)C(=O)O)NC(=O)[C@H](C)NC(=O)[C@H](C)NC(=O)[C@H](CCC(=O)O)NC(=O)CNC(=O)[C@H](CCC(=O)O)NC(=O)[C@H](CC(C)C)NC(=O)[C@](C)(Cc1ccccc1)NC(=O)[C@H](CO)NC(=O)[C@H](CO)NC(=O)[C@@H](NC(=O)[C@H](CC(=O)O)NC(=O)[C@H](CO)NC(=O)[C@@H](NC(=O)[C@](C)(Cc1ccccc1)NC(=O)[C@H](CO)NC(=O)CNC(=O)[C@H](CCC(=O)O)NC(=O)C(C)(C)NC(=O)[C@@H](N)Cc1c[nH]cn1)[C@@H](C)O)C(C)C)C(=O)N[C@@H](C)C(=O)N[C@@](C)(Cc1ccccc1)C(=O)N[C@H](C(=O)N[C@H](C(=O)N[C@@H](CCCCN)C(=O)NCC(=O)NCC(N)=O)C(C)C)C(C)C [compound 40]
71	110	88	7.8	12	23	23	CC[C@H](C)[C@H](NC(=O)[C@](C)(Cc1ccccc1)NC(=O)[C@H](CCC(=O)O)NC(=O)[C@](C)(CCCCN)NC(=O)[C@H](C)NC(=O)[C@H](C)NC(=O)[C@H](CCC(=O)O)NC(=O)CNC(=O)[C@H](CCC(=O)O)NC(=O)[C@H](CC(C)C)NC(=O)[C@](C)(Cc1ccccc1)NC(=O)[C@H](CO)NC(=O)[C@H](CO)NC(=O)[C@@H](NC(=O)[C@H](CC(=O)O)NC(=O)[C@H](CO)NC(=O)[C@H](CO)NC(=O)[C@](C)(Cc1ccccc1)NC(=O)[C@H](CO)NC(=O)CNC(=O)[C@H](CCC(=O)O)NC(=O)C(C)(C)NC(=O)[C@@H](N)Cc1c[nH]cn1)C(C)C)C(=O)N[C@@H](C)C(=O)N[C@@](C)(Cc1ccccc1)C(=O)N[C@H](C(=O)N[C@H](C(=O)N[C@@](C)(CCCCN)C(=O)NCC(=O)NCC(N)=O)C(C)C)C(C)C [compound 8] (H-H[Aib]EGS[αMeF]SSDVSS[αMeF]LEGEAA[αMeK]E[αMeF]IA[αMeF]VV[αMeK]GG-NH2; N-terminus assumed)

Source: patent US10414811B2, “Protease-resistant lipidated GLP-1 analogs” (MEDIMMUNE LIMITED, priority 2015, dated 2019)
